The values that follow come from patent US20140034581A1, “LIQUID PRODUCTS AND METHOD FOR EMULSIFYING OIL, AND USE THEREOF IN THE TREATMENT OF OIL CONTAMINATIONS” (MAN OIL GROUP AG, priority 2011, published 2014).

The data set in a line: flash point. Type of data set: physicochemical. As to conditions: pure glycol component.

Each structure is given as a SMILES string.

As to `CC(O)CO` (stereo not shown) [1,2-Propandiol], the flash point was over 102 °C.
